Consider one molecule from patent US11306121B2, “Composition for muscle relaxation” (CAREGEN CO., LTD., priority 2018, dated 2022).

Like-named read-outs stand apart in the source and are kept apart here. Residues, ends and D or L forms follow the SMILES beside them.

For data set [1] the following is noted: 1,000 ppm in sterile distilled water, stored at 45° C., maximum observation time of 75 days.
The conditions of data set [2]: 1,000 ppm in sterile distilled water, warmed at 121° C., maximum warming time of 30 minutes.

Take `CC[C@H](C)[C@H](NC(=O)[C@H](CC(C)C)NC(=O)[C@H](Cc1ccccc1)NC(=O)[C@@H](N)CCCCN)C(=O)N[C@@H](CCCCN)C(=O)O` [peptide of the present invention, KFLIK] (H-KFLIK-OH; N-terminus and C-terminus assumed): the “stability of the peptide (HPLC assay)” value in data set [1] and in data set [2] was “maintained” in each case.
